These molecules were tested against EGFR (murine) (UniProt P00533) (assay: not given). Conditions: nih3t3.
Sequence of EGFR (murine) (P00533 whole entry, looked up): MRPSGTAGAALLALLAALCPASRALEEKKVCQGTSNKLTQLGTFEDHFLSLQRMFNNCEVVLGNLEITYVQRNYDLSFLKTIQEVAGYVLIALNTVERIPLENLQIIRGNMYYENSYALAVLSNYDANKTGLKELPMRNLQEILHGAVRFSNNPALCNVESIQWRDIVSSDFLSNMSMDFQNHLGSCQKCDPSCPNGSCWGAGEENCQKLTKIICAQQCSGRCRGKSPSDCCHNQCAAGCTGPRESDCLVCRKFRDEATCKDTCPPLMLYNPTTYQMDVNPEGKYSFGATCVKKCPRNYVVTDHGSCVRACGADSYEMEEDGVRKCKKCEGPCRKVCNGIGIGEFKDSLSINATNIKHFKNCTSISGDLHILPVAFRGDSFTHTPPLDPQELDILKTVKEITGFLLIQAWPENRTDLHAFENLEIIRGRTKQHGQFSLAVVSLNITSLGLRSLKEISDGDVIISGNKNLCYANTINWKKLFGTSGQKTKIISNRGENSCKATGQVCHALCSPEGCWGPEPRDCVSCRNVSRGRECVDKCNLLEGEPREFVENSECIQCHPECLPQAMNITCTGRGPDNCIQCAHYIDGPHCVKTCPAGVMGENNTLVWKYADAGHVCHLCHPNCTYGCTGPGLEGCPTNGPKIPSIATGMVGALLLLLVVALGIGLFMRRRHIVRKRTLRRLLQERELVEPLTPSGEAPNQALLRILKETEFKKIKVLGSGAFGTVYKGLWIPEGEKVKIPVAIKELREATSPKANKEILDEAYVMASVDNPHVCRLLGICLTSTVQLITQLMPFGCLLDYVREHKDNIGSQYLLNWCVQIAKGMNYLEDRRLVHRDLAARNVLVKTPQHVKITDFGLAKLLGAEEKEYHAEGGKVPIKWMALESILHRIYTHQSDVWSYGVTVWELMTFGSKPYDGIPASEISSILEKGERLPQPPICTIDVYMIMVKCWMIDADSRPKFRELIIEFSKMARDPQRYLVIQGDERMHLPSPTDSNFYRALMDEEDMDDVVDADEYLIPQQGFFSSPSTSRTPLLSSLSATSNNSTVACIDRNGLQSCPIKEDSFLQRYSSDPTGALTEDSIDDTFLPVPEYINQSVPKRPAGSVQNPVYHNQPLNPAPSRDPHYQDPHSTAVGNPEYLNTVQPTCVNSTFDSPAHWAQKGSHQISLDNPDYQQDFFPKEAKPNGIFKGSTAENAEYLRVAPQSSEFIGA

IC50 | Structure (SMILES)
> 100000 nM | Cc1oncc1C(=O)Nc1ccc(C(F)(F)F)cc1
> 100000 nM | Cc1noc(C)c1C(=O)Nc1ccc(C(F)(F)F)cc1
> 100000 nM | Cc1n[nH]cc1C(=O)Nc1ccc(C(F)(F)F)cc1
> 100000 nM | Cc1nocc1C(=O)Nc1ccc(C(F)(F)F)cc1

Molecular target: EGFR (murine) (UniProt P00533)
Test: not given
Conditions: nih3t3
Remark: another data set of the same source

Structure (SMILES) | IC50
COc1cc2ncnc(Nc3cccc(C(F)(F)F)c3)c2cc1OC | < 6 nM
COc1cc2ncnc(Nc3cccc(C#N)c3)c2cc1OC | 200 nM
Cc1ccc2ncnc(Nc3cccc(C(F)(F)F)c3)c2c1 | 900 nM

Each molecule was assayed against EGFR (mouse) (UniProt P00533) (assay: not given). Conditions: mk.

IC50 | Structure (SMILES)
4930 nM | COc1cc(O)c2c(=O)c(-c3cccc(Cl)c3)cn(CCc3ccccc3)c2c1
45200 nM | COc1cc(O)c2c(=O)c(-c3cccc(Cl)c3)coc2c1
2830 nM | COc1cc(O)c2c(=O)c(-c3cccc(Cl)c3)cn(C)c2c1
11400 nM | COc1cc(O)c2c(=O)c(-c3cccc(Cl)c3)c[nH]c2c1

Each molecule was assayed against MAPK14 (human) (UniProt Q16539) (assay: Inhibition of TNF-alpha Production in LPS Stimulated Whole Blood). Conditions: blood cells.
Sequence of MAPK14 (human) (Q16539 whole entry, looked up): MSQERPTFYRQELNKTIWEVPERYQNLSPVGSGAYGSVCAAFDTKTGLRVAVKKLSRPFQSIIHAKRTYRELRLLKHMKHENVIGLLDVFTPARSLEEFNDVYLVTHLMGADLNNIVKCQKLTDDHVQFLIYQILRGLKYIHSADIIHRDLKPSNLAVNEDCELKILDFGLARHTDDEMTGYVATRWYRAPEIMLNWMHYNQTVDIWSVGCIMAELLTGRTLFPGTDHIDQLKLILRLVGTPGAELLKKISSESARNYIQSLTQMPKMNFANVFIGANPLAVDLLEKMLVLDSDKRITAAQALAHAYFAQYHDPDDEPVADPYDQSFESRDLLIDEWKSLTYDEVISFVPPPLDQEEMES

Structure (SMILES) | IC50
C=CCOCCn1c(SC)nc(-c2ccc(F)cc2)c1-c1ccnc(NC(C)=O)c1 | > 100000 nM

Each molecule was assayed against MAPK14 (UniProt Q16539) (assay: Assessment of MAPK14 Kinase Activity). Conditions: not given.
Sequence of MAPK14 (Q16539 whole entry, looked up): as above

IC50 | Structure (SMILES)
1.4 nM | CC(C)Nc1ncc2cc(-c3ccccc3Cl)c3nccn3c2n1
6620 nM | O[C@H]1CC[C@H](Nc2ncc3c(n2)N2CCN=C2N(c2ccccc2Cl)C3)CC1
18.8 nM | CC(C)(CO)Nc1ncc2cc(-c3ccccc3Cl)c3nccn3c2n1
2.7 nM | CS(=O)(=O)N1CCC(Nc2ncc3c(n2)N2CCN=C2C(c2ccccc2Cl)=C3)CC1

Each molecule was assayed against MAPK14 (UniProt Q16539) (assay: p38-alpha Inhibition). Conditions: not given.

IC50 | Structure (SMILES)
6700 nM | ON1=CC=Cc2[nH]c(c3ccncc3)c(c4ccc(F)cc4)c12
68 nM | COn1c(-c2ccncc2)c(-c2ccc(F)cc2)c2ncccc21
21 nM | CCOCn1c(-c2ccncc2)c(-c2ccc(F)cc2)c2ncccc21
2500 nM | ON1=CC=C(C=C1)c2[nH]c3cccnc3c2c4ccc(F)cc4

Each molecule was assayed against MAPK14 (human) (UniProt Q16539) (assay: Inhibition of TNF-alpha Production in PBMC Cells). Conditions: not given.

IC50 | Structure (SMILES)
3600 nM | COc1cc2ncnc(Nc3ccc(C)c(NC(=O)c4ccccc4)c3)c2cc1OC
3200 nM | CCC(=O)Nc1cc(Nc2ncnc3cc(OC)c(OC)cc23)ccc1F
5200 nM | COc1cc2c(Nc3cc(NC(=O)c4cccc(N(C)C)c4)ccc3C)ncnc2c(OC)c1OC
2000 nM | COc1cc2c(Nc3cc(NC(=O)c4cccc(N(C)C)c4)ccc3C)ncnc2cc1OCCCN1CCOCC1

Each molecule was assayed against MAPK14 (UniProt Q16539) (assay: p38 Kinase Inhibition). Conditions: not given.

IC50 | Structure (SMILES)
> 30000 nM | COc1cc2ncnc(N3CCN(C(=S)NCc4ccccc4)CC3)c2cc1OC
11 nM | C[C@]1(C(=O)N2CCOCC2)CO[C@H](c2nc(-c3ccc(F)cc3)c(-c3ccnc(NCc4ccccn4)n3)[nH]2)OC1
> 30000 nM | COc1cc2ncnc(N3CCN(C(=S)NCc4ccc5c(c4)OCO5)CC3)c2cc1OC

These molecules were tested against EGFR (UniProt P00533) (assay: not given). Conditions: not given.
Sequence of EGFR (P00533 whole entry, looked up): as the sequence (P00533 whole entry, looked up) above

IC50 | Structure (SMILES)
> 50000 nM | Cc1cccc(N(C)c2ncnc3[nH]ncc23)c1
30000 nM | Cc1oncc1C(=O)Nc1ccc(C(F)(F)F)cc1
> 100000 nM | NC(=O)c1cc2ccc(O)c(O)c2cn1

These molecules were tested against CDK2 (human) (UniProt P24941) (assay: Enzyme Assay). Conditions: not given.

IC50 | Structure (SMILES)
310 nM | CC[C@@H](CO)Nc1cc(NCc2ccccc2)c2ncn(C(C)C)c2n1
250 nM | CC[C@H](CO)Nc1cc(NCc2ccc(-c3ccccn3)cc2)c2ncn(C(C)C)c2n1
180 nM | CC[C@H](CO)Nc1cc(NCc2ccccc2)c2ncn(C(C)C)c2n1
100 nM | CC[C@@H](CO)Nc1cc(NCc2ccc(-c3ccccn3)cc2)c2ncn(C(C)C)c2n1

The molecules below were run against EGFR (murine) (UniProt P00533) (assay: not given). Conditions: nih 3t3.

IC50 | Structure (SMILES)
> 100000 nM | COC(=O)Nc1nc2ccc(Oc3ccccc3)nc2[nH]1
> 100000 nM | O=c1[nH]c2ccc(Oc3ccccc3)nc2[nH]1
> 100000 nM | CCOC(=O)Nc1nc2ccc(Oc3ccccc3)nc2[nH]1
> 100000 nM | O=c1[nH]c2ccc(Sc3ccccc3)nc2[nH]1

What follows are molecules tested against EGFR (human) (UniProt P00533) (assay: not given). Conditions: A431.
Sequence of EGFR (human) (P00533 whole entry, looked up): as above

IC50 | Structure (SMILES)
86 nM | C[C@@H](Nc1ncnc2ccccc12)c1ccccc1
10 to 50 nM | C[C@@H](Nc1nc[nH]c2nc(-c3ccccc3)cc1-2)c1ccccc1
> 10000 nM | C[C@H](Nc1ncnc2ccccc12)c1ccccc1
> 100000 nM | C[C@H](Nc1[nH]cnc2c3ccccc3nc1-2)c1ccccc1

Molecular target: EGFR (UniProt P00533)
Test: not given
Conditions: not given
Remark: another data set of the same source

IC50 | Structure (SMILES)
1000 nM | Cc1cccc(Nc2ncnc3ccc(N)cc23)c1
1690 nM | Cc1cccc(Nc2ncnc3ccc(N(C)C(=O)NCCCl)cc23)c1
156 nM | CN(C(=O)NCCCl)c1ccc2ncnc(Nc3cccc(Br)c3)c2c1
81 nM | CN(C(=O)NCCCl)c1ccc2ncnc(Nc3cccc(Cl)c3)c2c1
